Measured values reported in PubChem BioAssay (NCI).
Several values for one entry are separate records, joined by “and”; a condition that tells them apart may be missing. Identical values can stand only once.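 Five concentrations, 48 hours, 96-well plates. At the GI50, growth is halved. The concentration for full growth arrest is given as TGI.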

How the values were obtained:
Experiment in all cases: inhibition of tumour cell growth, NCI panel, 48 h
SR leukemia = tested on: SR leukemia
HT29 colon = tested on: HT29 colon
LOX IMVI melanoma = tested on: LOX IMVI melanoma
SK-OV-3 ovarian = tested on: SK-OV-3 ovarian
HS 578T breast = tested on: HS 578T breast
OVCAR-8 ovarian = tested on: OVCAR-8 ovarian
EKVX NSCLC = tested on: EKVX NSCLC
SNB-75 CNS = tested on: SNB-75 CNS
MCF7 breast = tested on: MCF7 breast
UACC-62 melanoma = tested on: UACC-62 melanoma

SMILES	GI50 (SR leukemia)	TGI (SR leukemia)	GI50 (HT29 colon)	TGI (HT29 colon)	GI50 (LOX IMVI melanoma)	TGI (LOX IMVI melanoma)	GI50 (SK-OV-3 ovarian)	TGI (SK-OV-3 ovarian)	GI50 (HS 578T breast)	TGI (HS 578T breast)	GI50 (OVCAR-8 ovarian)	TGI (OVCAR-8 ovarian)	GI50 (EKVX NSCLC)	TGI (EKVX NSCLC)	GI50 (SNB-75 CNS)	TGI (SNB-75 CNS)	GI50 (MCF7 breast)	TGI (MCF7 breast)	GI50 (UACC-62 melanoma)	TGI (UACC-62 melanoma)
O=c1oc(-c2ccccc2)cc2cccc(O)c12	43.5 µM	> 100 µM	> 56.9 µM	> 100 µM	29.7 µM	> 100 µM	26.8 µM	68.6 µM	23.8 µM	54.7 µM	23.9 µM	52.4 µM	4.22 µM	> 40.6 µM	24.4 µM	> 62.6 µM	> 28 µM	> 100 µM	24.5 µM	> 64.3 µM
N#Cc1ccc(C2C3=C(CCCC3=O)OC3=C2C(=O)c2ccccc2C3=O)cc1 (configuration not stated)	3.47 µM	> 100 µM	2.91 µM	8.04 µM	0.343 µM	1.69 µM	3.17 µM	9.6 µM	3.21 µM	9.37 µM	0.722 µM	4.79 µM	1.28 µM	3.86 µM	1.35 µM	2.65 µM	0.664 µM	2.65 µM	2.06 µM	4.02 µM
COc1cc(F)cc([C@@H](CO)NC(=O)[C@@H](C)N2Cc3ccc(-c4nc(NC5CCOCC5)ncc4Cl)cc3C2=O)c1	10.8 µM	70.7 µM	< 0.01 µM	> 54.2 µM	< 0.0181 µM	11.8 µM	3.25 µM	> 100 µM	4.96 µM	> 81.9 µM	13.6 µM	64.8 µM	0.108 µM	66 µM	12.5 µM	54 µM	9.67 µM	49.6 µM	< 0.01 µM	0.0248 µM
CCOC(=O)NC1=C(N2CC2)C(=O)C(NC(=O)OCC)=C(N2CC2)C1=O	0.389 µM	7.9 µM and 60.6 µM	14.5 µM and 9.07 µM	25 µM and 47.3 µM and 70.2 µM		17.1 µM and 11.9 µM	9.93 µM and 8.49 µM	25 µM and 20.3 µM and 31.8 µM		24.7 µM	4.71 µM	14.3 µM and 14.5 µM	24.2 µM	25 µM and 16.1 µM	9.24 µM	23.2 µM and 29.9 µM and 52 µM	6.33 µM	25 µM and 21.3 µM	1.75 µM	12 µM and 4.37 µM and 1.74 µM
Oc1ccc2ccccc2c1C1NN=C(c2ccccc2)S1 (configuration not stated)	0.473 µM	> 100 µM	0.724 µM	40 µM	0.327 µM	13 µM	0.519 µM	20.5 µM	2.41 µM	44.4 µM	0.439 µM	> 100 µM	0.633 µM	> 94.7 µM	1.02 µM	32.2 µM	0.426 µM	21.2 µM	0.362 µM	6.3 µM
COc1ccc(-c2cn(-c3cccc(C(=O)/C=C/c4ccc(O)c(OC)c4)c3)c(=O)[nH]2)cc1	2.24 µM	> 100 µM	2.99 µM	> 22.7 µM	2.21 µM	6.02 µM	4.32 µM	48.6 µM	3.24 µM	> 27.2 µM	3.58 µM	> 49.6 µM	8.4 µM	> 100 µM	4.75 µM	> 80.2 µM	2.66 µM	22 µM	3.18 µM	16.1 µM
CC(C)[NH-].CC(C)[NH-].O.O.[Cl][Pt+2][Cl]	17.8 µM	53.5 µM	12.7 µM	83.8 µM	18.3 µM	51.4 µM	28.6 µM	92.6 µM	98.8 µM	594 µM	36.5 µM	167 µM	66.7 µM	203 µM	94.4 µM	308 µM	19.4 µM	102 µM	26.7 µM	128 µM
COc1ccc2nc3cc([N+](=O)[O-])ccc3c(NCCCN(CCO)CCO)c2c1	1.97 µM	14.3 µM	2.03 µM	5.21 µM	2.42 µM	6.32 µM	12.7 µM	17.2 µM	4.06 µM	12.5 µM	3.31 µM	11.2 µM	7.48 µM	18.4 µM	10.9 µM	22.9 µM	0.889 µM	4.95 µM	3.34 µM	11.6 µM
O=C(NCCCCCCNC(=O)n1cc(F)c(=O)[nH]c1=O)NCCCOCCOCCOCCOCCOCCOCCOCCOCCOCCOCCOCCOCCOCCOCCOCCOCCOCCOCCOCCOCCOCCCNC(=O)C(O)C(O)C(OC1OC(CO)C(O)C(O)C1O)C(O)CO (configuration not stated)		> 100 µM		> 100 µM		> 100 µM		> 100 µM		> 100 µM		> 100 µM		> 100 µM		> 43.7 µM		> 46.8 µM		> 100 µM
Cc1ccc(C(=O)N2CCN(C(=O)c3ccc(C)cc3)c3ccccc32)cc1		> 100 µM		21.3 µM		> 100 µM		25 µM		29.8 µM		> 100 µM		> 100 µM		> 100 µM		> 100 µM		> 100 µM
O=C(O)c1ccc2c3c(ncnc13)-c1ccccc1C2=O	35.7 µM	> 100 µM	3.45 µM	> 28 µM	1.74 µM	18.5 µM	> 89.5 µM	> 100 µM	1.19 µM	6.28 µM	47.5 µM	> 100 µM	51.6 µM	> 100 µM	3.21 µM	> 21 µM	4.14 µM	> 100 µM	2.44 µM	6.11 µM
O=C(NCCN1CCC(O)CC1)c1cc2c(o1)C(=O)c1ccccc1C2=O	0.396 µM	20.5 µM	0.296 µM	3.43 µM	0.145 µM	0.337 µM	1.51 µM	2.92 µM	0.322 µM	0.919 µM	0.322 µM	1.41 µM	0.979 µM	2.49 µM	0.323 µM	0.797 µM	0.137 µM	0.338 µM	0.164 µM	0.308 µM
Nc1nc2ccc3[nH]ncc3c2c2c1CCCC2	0.467 µM		1.88 µM	11.8 µM	1.29 µM	2.82 µM	2.94 µM	14.7 µM	1.95 µM	6.8 µM	2.14 µM	18.8 µM	1.54 µM	5.38 µM	1.36 µM	2.71 µM	0.403 µM	7.25 µM	1.43 µM	3.47 µM
c1cncc(-c2nc3ccccc3s2)c1	> 100 µM	> 100 µM	> 100 µM	> 100 µM	> 100 µM	> 100 µM	> 100 µM	> 100 µM	50.7 µM	> 100 µM	> 100 µM	> 100 µM	41.2 µM	> 100 µM	58.4 µM	> 100 µM	> 100 µM	> 100 µM	> 100 µM	> 100 µM
O=C1NC(=O)C(c2ccc(Cl)cc2)=C1Nc1ccc(Cl)c(C(=O)O)c1	> 25 µM	> 25 µM	> 25 µM	> 25 µM	> 25 µM	> 25 µM	> 25 µM	> 25 µM	> 25 µM	> 25 µM	> 25 µM	> 25 µM	> 25 µM	> 25 µM	> 25 µM	> 25 µM	> 25 µM	> 25 µM	> 25 µM	> 25 µM
